Values of other authors as cited in paper PMC7395068, “The evolution of strategies to minimise the risk of human drug-induced liver injury (DILI) in drug discovery and development” (Archives of Toxicology, 2020).
Like-named read-outs stand apart in the source and are kept apart here.

Legend:
[1] = system: THLE or HepG2 cells, isolated mitochondria, BSEP; settings: In vitro Assay; ref Aleo 2019; cited from earlier work
[2] = system: primary human hepatocytes, NIH3T3 fibroblasts, BSEP, CYP3A4; settings: In vitro Assay; ref Schadt 2015; cited from earlier work
[3] = system: human hepatocytes; settings: In vitro Assay; ref Xu 2008; cited from earlier work
[4] = system: isolated mouse liver mitochondria; settings: In vitro Assay; ref Porceddu 2012; cited from earlier work
[5] = cited from earlier work
[6] = system: RMPCC's; settings: cited from earlier work
[7] = system: HepG2 cells; settings: cited from earlier work
[8] = system: HepG2 cells; settings: In vitro Assay; ref Persson 2013; cited from earlier work
[9] = cited from earlier work; remark: listed apart in the source
[10] = ref Chen 2011; cited from earlier work
[11] = system: PHH spheroids; settings: In vitro Assay; ref Vorrink 2018; cited from earlier work
[12] = system: hu-MPCC; settings: cited from earlier work
[13] = system: HepG2 cells, primary human hepatocytes; settings: In vitro Assay; ref Garside 2014; cited from earlier work
[14] = system: hLiMTs; settings: In vitro Assay; ref Proctor 2017; cited from earlier work
[15] = system: PHH; settings: In vitro Assay; ref Proctor 2017; cited from earlier work
[16] = system: HepG2 C3A spheroid, BSEP, Glu/Gal in HepG2 cells, bioactivation; settings: In vitro Assay; ref Williams 2019; cited from earlier work
[17] = system: THLE-Null and THLE-3A4 cells; settings: In vitro Assay; ref Gustafsson 2014; cited from earlier work
[18] = system: rBsep; settings: In vitro Assay; ref Dawson 2012; cited from earlier work
[19] = In vitro Assay, ref Khetani 2012
[20] = In vitro Assay, ref O'Brien 2006

Row | Compound | Partition Hybrid HRM Score [1] | Ro2 Hybrid HRM Score [1] | Structural based (HCI) [3] | in vitro data EC2<=1x Cmax [4] | in vitro data EC20<=2uM [4] | In vivo DILI ([5]; […]) | In vivo DILI ([5]; ref Aleo 2019) | In vivo DILI ([5]; ref Khetani 2012) | In vivo DILI ([5]; ref Porceddu 2012) | In vivo DILI ([5]; ref Vorrink 2018) | In vivo DILI ([5]; ref Xu 2008) | RMPCC's [6, 19] | DILI +VE (5-8), DILI -VE (-4) ([9]; ref Chen 2016) | DILI severity category ([9]; ref Chen 2016) | DILI Score (FDA) (1-8) [10] | hLiMTs ATP <20 x Cmax [11] | HMPCC's [12, 19] | also measured
1 | CN1C(C(=O)Nc2ccccn2)=C(O)c2ccccc2S1(=O)=O [piroxicam] | -VE | +VE | -VE | +VE | +VE | +VE | +VE | +VE | +VE | +VE | +VE | +VE | +VE | vLess-DILI-Concern | 3 | -VE | -VE | Cellular toxicity (3T3 cells) [2]: -VE; Combined Assay [2]: -VE; GSH adduct HML [2]: -VE; Hepatocyte cellular toxicity [2]: -VE; MitoTox 3T3 [2]: -VE; TDI CYP3A4 [2]: -VE; hBSEP inhibition [2]: -VE; In vivo DILI ([5]; ref O'Brien 2006): +VE; In vivo DILI ([5]; ref Persson 2013): +VE; In vivo DILI ([5]; ref Schadt 2015): -VE; Structural based (HCI) [7, 20]: +VE; Cluser analysis [8]: -VE; Structural based (HCI) [8]: -VE
2 | NC(=O)c1cnccn1 [pyrazinamide] | +VE | -VE | -VE | +VE | +VE | +VE | +VE | +VE | +VE |  | +VE | -VE | +VE | vLess-DILI-Concern | 3 |  | +VE | Cluster 1-6 +VE Assay [13]: -VE; In vivo DILI ([5]; ref Garside 2014): +VE; In vivo DILI ([5]; ref O'Brien 2006): +VE; Structural based (HCI) [7, 20]: +VE
3 | Cc1cccc(Nc2ccccc2C(=O)O)c1C [mefenamic acid] |  |  | +VE | +VE | +VE | +VE |  | +VE | +VE | +VE | +VE | +VE | +VE | vMost-DILI-Concern |  | +VE (IC20 < 20 × Cmax.tot cut-off) | +VE | In vivo DILI ([5]; ref Proctor 2017): -VE; hLiMTs ATP <100uM [14]: +VE (IC50 threshold of 100 µM); PHH ATP <100uM [15]: +VE (IC50 threshold of 100 µM)
4 | CCc1oc2ccccc2c1C(=O)c1cc(Br)c(O)c(Br)c1 [benzbromarone] | +VE | +VE | +VE |  |  | +VE | +VE | +VE |  |  | +VE | +VE | +VE | vMost-DILI-Concern |  |  | +VE | Bayesian Machine Learning [16]: +VE; In vivo DILI ([5]; ref Gustafsson 2014): +VE; In vivo DILI ([5]; ref Proctor 2017): +VE; In vivo DILI ([5]; ref Williams 2019): +VE; hLiMTs ATP <100uM [14]: +VE (IC50 threshold of 100 µM); THLE-Null [17]: +VE; THLE-Null/3A4 [17]: +VE; PHH ATP <100uM [15]: +VE (IC50 threshold of 100 µM)
5 | CNCCC=C1c2ccccc2CCc2ccccc21 [nortriptyline] | +VE | +VE | -VE |  |  |  | +VE | +VE |  | +VE | +VE | +VE | +VE | vMost-DILI-Concern | 8 | +VE (IC20 < 20 × Cmax.tot cut-off) | +VE | 
6 | CC(=O)[C@H]1CC[C@H]2[C@@H]3CCC4=CC(=O)CC[C@]4(C)[C@H]3CC[C@]12C [progesterone] |  |  | -VE |  |  | -VE |  | +VE |  | -VE | +VE | -VE | +VE | vLess-DILI-Concern |  | -VE | -VE | 
7 | Cn1cc[nH]c1=S [methimazole] | -VE | -VE |  |  |  |  |  |  |  |  |  | -VE |  |  |  |  | -VE | Inhibition of rBsep cutoff<1& cmax u>.2 [18]: -VE; Inhibition of rBsep cutoff<3 [18]: -VE
8 | C=C[C@H]1C[N@@]2CC[C@H]1C[C@H]2[C@H](O)c1ccnc2ccc(OC)cc12 [quinine] |  |  |  |  |  |  |  |  |  |  |  |  |  |  |  | +VE (IC20 < 20 × Cmax.tot cut-off) |  | In vivo DILI ([5]; in vivo): +VE; RMPCC's [6]: +VE; Structural based (HCI) [7]: +VE; DILI +VE (5-8), DILI -VE (-4) ([9]; in vivo): +VE; DILI severity category ([9]; in vivo): vLess-DILI-Concern; HMPCC's [12]: +VE
9 | CC(C(=O)O)c1ccc(-c2ccccc2)c(F)c1 (stereo not drawn) [flurbiprofen] | +VE | +VE | +VE |  |  |  |  | +VE |  |  | +VE | +VE | -VE | Ambiguous DILI-concern | 3 |  | +VE | Cluster 1-6 +VE Assay [13]: -VE; Cellular toxicity (3T3 cells) [2]: -VE; Combined Assay [2]: -VE; GSH adduct HML [2]: -VE; Hepatocyte cellular toxicity [2]: -VE; MitoTox 3T3 [2]: -VE; TDI CYP3A4 [2]: -VE; hBSEP inhibition [2]: -VE; In vivo DILI ([5]; ref Garside 2014): +VE; In vivo DILI ([5]; ref Gustafsson 2014): +VE; In vivo DILI ([5]; ref Schadt 2015): -VE; THLE-Null [17]: -VE; THLE-Null/3A4 [17]: -VE
10 | O=c1n(CCCN2CCN(c3cccc(Cl)c3)CC2)nc2ccccn12 [trazodone] | +VE | +VE | +VE |  |  |  | +VE | +VE |  | +VE | +VE | +VE | +VE | vLess-DILI-Concern | 5 | +VE (IC20 < 20 × Cmax.tot cut-off) | +VE | 
